# Test results from patent US9346817B2, “Dioxino- and oxazin-[2,3-D]pyrimidine PI3K inhibitor compounds and methods of use” (Genentech, Inc., priority 2012, dated 2016).
# Columns and labels:
# [1] = Brain protein binding in rats; assay type: in vitro ADME; settings: rat, read-out: Brain protein binding (mean bound %) (converted)
# Description: Brain protein binding in rats was measured for Formula I exemplary compounds, including the following: […]
# [2] = tested on: PC3 cells (prostate, PTEN mutation); assay: In vitro cell proliferation assay (CellTiter-Glo), PC3; assay type: cell-based; settings: Homo sapiens, PC-3; Cell line: PC3; Tissue type: prostate; Mutation Status: PTEN
# Description: (§1) The cytotoxic or cytostatic activity of Formula I exemplary compounds was measured by: establishing a proliferating mammalian tumor cell line in a cell culture medium, adding a Formula I compound, culturing the cells for a period from about 6 hours to about 5 days; and measuring cell viability (Example 902). Cell-based in vitro assays were used to measure viability, i.e. proliferation (IC50), cytotoxicity (EC50), and induction of apoptosis (caspase activation).
# (§2) The in vitro potency of Formula I exemplary compounds was measured by the cell proliferation assay, CellTiter-Glo® Luminescent Cell Viability Assay, commercially available from Promega Corp., Madison, Wis. (Example 902). This homogeneous assay method is based on the recombinant expression of Coleoptera luciferase (U.S. Pat. No. 5,583,024; U.S. Pat. No. 5,674,713; U.S. Pat. No. 5,700,670) and determines the number of viable cells in culture based on quantitation of the ATP present, an indicator of metabolically active cells (Crouch et al (1993) J. Immunol. Meth. 160:81-88; U.S. Pat. No. 6,602,677). The CellTiter-Glo® Assay was conducted in 96 or 384 well format, making it amenable to automated high-throughput screening (HTS) (Cree et al (1995) AntiCancer Drugs 6:398-404). The homogeneous assay procedure involves adding the single reagent (CellTiter-Glo® Reagent) directly to cells cultured in serum-supplemented medium. Cell washing, removal of medium and multiple pipetting steps are not required. The system detects as few as 15 cells/well in a 384-well format in 10 minutes after adding reagent and mixing.
# (§3) The homogeneous “add-mix-measure” format results in cell lysis and generation of a luminescent signal proportional to the amount of ATP present. The amount of ATP is directly proportional to the number of cells present in culture. The CellTiter-Glo® Assay generates a “glow-type” luminescent signal, produced by the luciferase reaction, which has a half-life generally greater than five hours, depending on cell type and medium used. Viable cells are reflected in relative luminescence units (RLU). The substrate, Beetle Luciferin, is oxidatively decarboxylated by recombinant firefly luciferase with concomitant conversion of ATP to AMP and generation of photons. The extended half-life eliminates the need to use reagent injectors and provides flexibility for continuous or batch mode processing of multiple plates. This cell proliferation assay can be used with various multiwell formats, e.g. 96 or 384 well format. Data can be recorded by luminometer or CCD camera imaging device. The luminescence output is presented as relative light units (RLU), measured over time.
# (§4) The anti-proliferative effects of Formula I exemplary compounds were measured by the CellTiter-Glo® Assay (Example 902) against several tumor cell lines. Potency EC50 values were established for the tested compounds. The range of in vitro cell potency activities was about 100 nM to about 10 μM.
# (§5) Efficacy of Formula I compounds was measured by a cell proliferation assay employing the following protocol (Promega Corp. Technical Bulletin TB288; Mendoza et al (2002) Cancer Res. 62:5485-5488):
# (§6) 1. An aliquot of 100 μl of cell culture containing about 10^4 cells (PC3 (prostate cancer), Detroit562 (pharynx carcinoma), or MDAMB361.1 (breast cancer) in medium was deposited in each well of a 384-well, opaque-walled plate.
# (§7) 2. Control wells were prepared containing medium and without cells.
# (§8) 3. The compound was added to the experimental wells and incubated for 3-5 days.
# (§9) 4. The plates were equilibrated to room temperature for approximately 30 minutes.
# (§10) 5. A volume of CellTiter-Glo® Reagent equal to the volume of cell culture medium present in each well was added.
# (§11) 6. The contents were mixed for 2 minutes on an orbital shaker to induce cell lysis.
# (§12) 7. The plate was incubated at room temperature for 10 minutes to stabilize the luminescence signal.
# (§13) 8. Luminescence was recorded and reported in graphs as RLU=relative luminescence units. […]
# [3] = tested on: MDA-MB-361.1 cells (breast, PI3K mutation); assay: In vitro cell proliferation assay (CellTiter-Glo), MDA-MB-361.1; assay type: cell-based; settings: Cell line: MDA-MB-361.1; Tissue type: breast; Mutation Status: PI3K
# Description: as §1, §2, §3, §4, §5, §6, §7, §8, §9, §10, §11, §12, §13
Structure (SMILES),fraction unbound [1],EC50 [2] [µM],EC50 [3] [µM]
"CC1(C)COc2c(nc(-c3cnc(N)nc3)nc2N2CCOCC2)O1 [Compound 104, 5-(7,7-dimethyl-4-morpholino-6H-[1,4]dioxino[2,3-d]pyrimidin-2-yl)pyrimidin-2-amine]",,0.406,0.577
"CC1(C)COc2c(nc(-c3cccc(O)c3)nc2N2CCOCC2)O1 [Compound 109, 3-(7,7-dimethyl-4-morpholino-6H-[1,4]dioxino[2,3-d]pyrimidin-2-yl)phenol]",,0.182,0.445
"COc1ncc(-c2nc3c(c(N4CCOCC4)n2)OCC(C)(C)O3)cn1 [Compound 110, 2-(2-methoxypyrimidin-5-yl)-7,7-dimethyl-4-morpholino-6H-[1,4]dioxino[2,3-d]pyrimidine]",,4.8,4.1
"CC1(C)COc2c(nc(-c3ccc(N)nc3)nc2N2CCOCC2)O1 [Compound 111, 5-(7,7-dimethyl-4-morpholino-6H-[1,4]dioxino[2,3-d]pyrimidin-2-yl)pyridin-2-amine]",,0.48,0.545
"CC(=O)Nc1ccc(-c2nc3c(c(N4CCOCC4)n2)OCC(C)(C)O3)cc1 [Compound 112, N-[4-(7,7-dimethyl-4-morpholino-6H-[1,4]dioxino[2,3-d]pyrimidin-2-yl)phenyl]acetamide]",,2.1,1.8
"CNc1ccc(-c2nc3c(c(N4CCOCC4)n2)OCC(C)(C)O3)cn1 [Compound 113, 5-(7,7-dimethyl-4-morpholino-6H-[1,4]dioxino[2,3-d]pyrimidin-2-yl)-N-methyl-pyridin-2-amine]",,2.1,2
"CC1(C)COc2c(nc(-c3cccc(NS(C)(=O)=O)c3)nc2N2CCOCC2)O1 [Compound 114, N-[3-(7,7-dimethyl-4-morpholino-6H-[1,4]dioxino[2,3-d]pyrimidin-2-yl)phenyl]methanesulfonamide]",,> 10,> 7.5
"CC1(C)COc2c(nc(-c3ccc4[nH]ccc4c3)nc2N2CCOCC2)O1 [Compound 115, 2-(1H-indol-5-yl)-7,7-dimethyl-4-morpholino-6H-[1,4]dioxino[2,3-d]pyrimidine]",,2.3,1.8
"CN1CCOc2c1nc(-c1cnc(N)nc1)nc2N1CCOCC1 [Compound 119, 5-(8-methyl-4-morpholino-7,8-dihydro-6H-pyrimido[5,4-b][1,4]oxazin-2-yl)pyrimidin-2-amine]",,3.1,2.6
"CN1C(=O)COc2c(N3CCOCC3)nc(-c3cnc(N)nc3)nc21 [Compound 120, 2-(2-aminopyrimidin-5-yl)-8-methyl-4-morpholino-6H-pyrimido[5,4-b][1,4]oxazin-7(8H)-one]",0.16,0.589,0.57

# Continued, values first:
fraction unbound [1],EC50 [2] [µM],EC50 [3] [µM],Structure (SMILES)
0.285,1,1.1,"Nc1ncc(-c2nc3c(c(N4CCOCC4)n2)OCCO3)cn1 [Compound 101, 5-(4-morpholino-6,7-dihydro-[1,4]dioxino[2,3-d]pyrimidin-2-yl)pyrimidin-2-amine]"
0.2,0.557,0.37,"C[C@@H]1COc2nc(-c3cnc(N)nc3)nc(N3CCOCC3)c2O1 [Compound 102, 5-[(6R)-6-methyl-4-morpholino-6,7-dihydro-[1,4]dioxino[2,3-d]pyrimidin-2-yl]pyrimidin-2-amine]"
,0.606,0.63,"CC1COc2c(nc(-c3cnc(N)nc3)nc2N2CCOCC2)O1 (centres unmarked) [Compound 103, 5-(7-methyl-4-morpholino-6,7-dihydro-[1,4]dioxino[2,3-d]pyrimidin-2-yl)pyrimidin-2-amine]"
0.183,0.5,0.275,"Nc1ncc(-c2nc3c(c(N4CCOCC4)n2)OCC(C(F)(F)F)O3)cn1 (centres unmarked) [Compound 105, 5-[4-morpholino-7-(trifluoromethyl)-6,7-dihydro-[1,4]dioxino[2,3-d]pyrimidin-2-yl]pyrimidin-2-amine]"
0.134,0.489,0.544,"Nc1ncc(-c2nc3c(c(N4CCOCC4)n2)OCC2(CC2)O3)cn1 [Compound 106, 5-(4-morpholinospiro[6H-[1,4]dioxino[2,3-d]pyrimidine-7,1′-cyclopropane]-2-yl)pyrimidin-2-amine]"
,1.2,0.961,"Nc1ncc(-c2nc3c(c(N4CCOCC4)n2)OC(C2CC2)CO3)cn1 (centres unmarked) [Compound 107, 5-(6-cyclopropyl-4-morpholino-6,7-dihydro-[1,4]dioxino[2,3-d]pyrimidin-2-yl)pyrimidin-2-amine]"
,0.338,0.213,"CC(C)(C)C1COc2c(nc(-c3cnc(N)nc3)nc2N2CCOCC2)O1 (centres unmarked) [Compound 108, 5-(7-tert-butyl-4-morpholino-6,7-dihydro-[1,4]dioxino[2,3-d]pyrimidin-2-yl)pyrimidin-2-amine]"
0.17,0.76,0.73,"Nc1ncc(-c2nc3c(c(N4CCOCC4)n2)OCC(CF)O3)cn1 (centres unmarked) [Compound 116, 5-[7-(fluoromethyl)-4-morpholino-6,7-dihydro-[1,4]dioxino[2,3-d]pyrimidin-2-yl]pyrimidin-2-amine]"
,0.759,0.669,"Nc1ncc(-c2nc3c(c(N4CCOCC4)n2)OCC(CO)O3)cn1 (centres unmarked) [Compound 117, [2-(2-aminopyrimidin-5-yl)-4-morpholino-6,7-dihydro-[1,4]dioxino[2,3-d]pyrimidin-7-yl]methanol]"
